The results in this text go back to the C3SDB collision cross section collection.

Where “and” joins values, the source holds several entries; their conditions need not be identical. Equal entries are not always repeated.

For this data set the following is noted: instrument: DT, single field, calibrated with Agilent tune mix (Agilent).

Consider `CC(=O)N[C@H]1[C@H]([C@H](O)[C@H](O)CO)O[C@](OP(=O)(O)OC[C@H]2O[C@@H](n3ccc(N)nc3=O)[C@H](O)[C@@H]2O)(C(=O)O)C[C@@H]1O` [Cytidine monophosphate N-acetylneuraminic acid], for which the “collision cross section (N2)” value ([M+Na]+) is recorded as 220.7 Å² and the “collision cross section (N2)” value ([M-H]-) is given as 215.5 Å². Consider `OC[C@H]1OC(O)[C@H](O)[C@@H](O)[C@H]1O` (stereo partly drawn) [D-(+)-Galactose], for which the “collision cross section (N2)” value ([M+Na]+) came to 142.1 Å².

For the compound `O=C(O)[C@@H](O)[C@@H](O)[C@H](O)[C@@H](O)C(=O)O` [D-Glucarate], for the setting “[M-H]-”, the “collision cross section (N2)” value is 130.5 Å² and 130.92 Å². Take `Nc1nc(=O)c2nc([C@H](O)[C@H](O)CO)cnc2[nH]1` [D-Neopterin]: the “collision cross section (N2)” value is 157.1 Å² ([M+H]+) and 150.31 Å² ([M-H]-). As for `NCCC[C@@H](N)C(=O)O` [D-Ornithine], the “collision cross section (N2)” value ([M-H]-) was 126.74 Å². Turning to `O=C(CO)[C@H](O)[C@H](O)COP(=O)(O)O` [D-Ribulose 5-phosphate], the “collision cross section (N2)” value ([M+Na]+) was 148.8 Å². With `OCC1(O)OC[C@@H](O)[C@H](O)[C@@H]1O` (stereo partly drawn) [D-Tagatose], the “collision cross section (N2)” value runs as follows: ([M+Na]+) 139 Å²; ([M-H]-) 129.77 Å². `N[C@H]1C(O)O[C@H](COP(=O)(O)O)[C@@H](O)[C@@H]1O` (stereo partly drawn) [D-glucosamine 6-phosphate]: the “collision cross section (N2)” value ([M+Na]+) is 156.6 Å². Turning to `C[C@H](CCC(=O)O)[C@H]1CC[C@H]2[C@@H]3CC[C@@H]4C[C@H](O)CC[C@]4(C)[C@H]3C[C@H](O)[C@]12C` [Deoxycholic acid], the “collision cross section (N2)” value ([M-H]-) is recorded as 200.7 Å². As for `Nc1ccn([C@H]2C[C@H](O)[C@@H](COP(=O)(O)OP(=O)(O)OP(=O)(O)O)O2)c(=O)n1` [Deoxycytidine 5'-triphosphate], under “[M-H]-”, the “collision cross section (N2)” value amounted to 176.92 Å². Consider `Nc1nc(=O)c2ncn([C@H]3C[C@H](O)[C@@H](COP(=O)(O)OP(=O)(O)OP(=O)(O)O)O3)c2[nH]1` [Deoxyguanosine triphosphate], for which the “collision cross section (N2)” value ([M-H]-) amounted to 189.26 Å². As for `Cc1cn([C@H]2C[C@H](O)[C@@H](COP(=O)(O)O)O2)c(=O)[nH]c1=O` [Deoxythymidine 5'-phosphate], for the setting “[M+Na]+”, the “collision cross section (N2)” value was found to be 173.1 Å². As for `CC(C)=CCC[C@@H](C)[C@H]1CC[C@H]2[C@@H]3CC=C4C[C@@H](O)CC[C@]4(C)[C@H]3CC[C@]12C` [Desmosterol], the “collision cross section (N2)” value was determined as 199.4 Å² ([M+H-H2O]+) and 210.05 Å² ([M-H]-). In the case of `Cc1cc2nc[nH]c2cc1C` [Dimethylbenzimidazole], the “collision cross section (N2)” value ([M+H]+) is reported as 129.9 Å² and the “collision cross section (N2)” value ([M-H]-) was 127.73 Å². As to `CCCCCCCC/C=C\CCCCCCCCCCCC(=O)O` [Erucic acid], the “collision cross section (N2)” value ([M-H]-) is 188.5 Å². As to `Cc1cc2nc3c(=O)[nH]c(=O)nc-3n(C[C@H](O)[C@H](O)[C@H](O)COP(=O)(O)OP(=O)(O)OC[C@H]3O[C@@H](n4cnc5c(N)ncnc54)[C@H](O)[C@@H]3O)c2cc1C` [Flavin adenine dinucleotide], the “collision cross section (N2)” value ([M+H]+) is 247.3 Å². In the case of `Nc1nc(=O)c2c([nH]1)NCC(CNc1ccc(C(=O)N[C@@H](CCC(=O)O)C(=O)O)cc1)N2C=O` (stereo not given in full) [Folinic acid], the “collision cross section (N2)” value is 196.9 Å² ([M+H]+) and 196.26 Å² ([M-H]-). As for `O=CNc1ccccc1C(=O)O` [Formylanthranilic acid], the “collision cross section (N2)” value is, setting by setting: ([M+H-H2O]+) 125.7 Å²; ([M-H]-) 127.28 Å². With `N[C@@H](CCC(=O)N[C@@H](CS)C(=O)O)C(=O)O` [Gamma-Glutamylcysteine], the “collision cross section (N2)” value ([M+H]+) was found to be 157.7 Å². Consider `O=C(O)c1cc(O)ccc1O` [Gentisic acid], for which, for the setting “[M-H]-”, the “collision cross section (N2)” value was determined as 122.67 Å². Consider `CC(C)=CCC/C(C)=C/COP(=O)(O)OP(=O)(O)O` [Geranyl diphosphate], for which the “collision cross section (N2)” value ([M-H2O-H]-) came to 161.5 Å².

Turning to `O=C(O)CCCC(=O)O` [Glutaric acid], the “collision cross section (N2)” value ([M-H]-) was 120.08 Å². For `CC(C)(COP(=O)(O)OP(=O)(O)OC[C@H]1O[C@@H](n2cnc3c(N)ncnc32)[C@H](O)[C@@H]1OP(=O)(O)O)[C@@H](O)C(=O)NCCC(=O)NCCSC(=O)CCCC(=O)O` [Glutaryl-CoA], the “collision cross section (N2)” value runs as follows: ([M+H]+) 260.5 Å²; ([M-H]-) 252.39 Å². With `CC(C)C[C@H](NC(=O)CN)C(=O)O` [Glycyl-L-leucine], the “collision cross section (N2)” value ([M+H]+) is 149.5 Å² and the “collision cross section (N2)” value ([M-H]-) is 142.07 Å². Take `NCC(=O)N1CCCC1C(=O)O` (stereo not given) [Glycylproline]: the “collision cross section (N2)” value ([M+H]+) is on record as 136.4 Å² and the “collision cross section (N2)” value ([M-H]-) is listed as 134.59 Å². Take `Nc1nc(=O)c2ncn([C@@H]3O[C@H](COP(=O)(O)O)[C@@H](O)[C@H]3O)c2[nH]1` [Guanosine 5'-monophosphate]: the “collision cross section (N2)” value ([M+H]+) was 178.9 Å². Regarding `CCCCCCCCCCCCCCCCC(=O)O` [Heptadecanoic acid], the “collision cross section (N2)” value ([M-H]-) came to 170.78 Å². Regarding `CCCCCC(=O)NCC(=O)O` [Hexanoylglycine], the “collision cross section (N2)” value ([M-H]-) was found to be 144.64 Å². Consider `O=C(O)Cc1cc(O)ccc1O` [Homogentisic acid], for which, under “[M+H-H2O]+”, the “collision cross section (N2)” value stood at 135.9 Å². `CN(C)CCc1ccc(O)cc1` [Hordenine]: the “collision cross section (N2)” value is reported as 137.8 Å² ([M+H]+) and 143.21 Å² ([M-H]-).

Regarding `CC(C)C[C@H](O)C(=O)O` [Hydroxyisocaproic acid], the “collision cross section (N2)” value ([M-H]-) came to 126.06 Å². For the compound `O=C(O)/C=C/c1c[nH]c2ccccc12` [Indole-3-acrylic acid], where the note is “[M-H]-”, the “collision cross section (N2)” value is 134.53 Å². Take `O=C(O)C(=O)Cc1c[nH]c2ccccc12` [Indole-3-pyruvic acid]: the “collision cross section (N2)” value ([M-H]-) is listed as 138.82 Å².

With `C=C(C)CCOP(=O)(O)OP(=O)(O)O` [Isopentenyl pyrophosphate], where the note is “[M-H]-”, the “collision cross section (N2)” value amounted to 141.71 Å². As to `N[C@@H](CC(=O)O)C(=O)N[C@@H](Cc1ccccc1)C(=O)O` [L-Aspartyl-L-phenylalanine], the “collision cross section (N2)” value ([M+H]+) was found to be 164.9 Å² and the “collision cross section (N2)” value ([M+Na-2H]-) turned out to be 162.34 Å².

In the case of `NCCC(=O)N[C@@H](Cc1cnc[nH]1)C(=O)O` [L-Carnosine], the “collision cross section (N2)” value ([M+H]+) came to 151 Å² and the “collision cross section (N2)” value ([M-H]-) was 149.72 Å². Consider `NC(=O)NCCC[C@H](N)C(=O)O` [L-Citrulline], for which the “collision cross section (N2)” value ([M+H]+) was found to be 138 Å². On to `N[C@@H](CCSC[C@H](N)C(=O)O)C(=O)O` [L-Cystathionine], for which the “collision cross section (N2)” value ([M+H]+) is 147 Å² and the “collision cross section (N2)” value ([M-H]-) came to 139.51 Å². As for `O=C1O[C@H]([C@@H](O)CO)[C@H](O)[C@@H]1O` [L-Gulonic gamma-lactone], the “collision cross section (N2)” value ([M+Na]+) is 140.6 Å² and the “collision cross section (N2)” value ([M-H]-) is 131.6 Å². On to `Nc1ccccc1C(=O)C[C@H](N)C(=O)O` [L-Kynurenine], for which, where the note is “[M+H]+”, the “collision cross section (N2)” value was found to be 149.1 Å². As for `O=C(O)[C@@H]1CCCCN1` [L-Pipecolic acid], the “collision cross section (N2)” value is, setting by setting: ([M+H]+) 127.4 Å²; ([M-H]-) 126.71 Å². Consider `O=C1CC[C@@H](C(=O)O)N1` [L-Pyroglutamic acid], for which, where the note is “[M+H]+”, the “collision cross section (N2)” value is 130.6 Å². For `N[C@@H](CCCCN[C@@H](CCC(=O)O)C(=O)O)C(=O)O` [L-Saccharopine], the “collision cross section (N2)” value by setting is: ([M+2Na-3H]-) 163.17 Å²; ([M+H]+) 159.8 Å².

For `N[C@@H](CCS(=O)(=O)O)C(=O)O` [L-homocysteic acid], the “collision cross section (N2)” value amounted to 140.3 Å² ([M+H]+) and 132.56 Å² ([M+Na-2H]-). `CC(C)CCC[C@@H](C)[C@H]1CC[C@H]2C3=CC[C@H]4C[C@@H](O)CC[C@]4(C)[C@H]3CC[C@]12C` [Lathosterol]: the “collision cross section (N2)” value ([M+H-H2O]+) was 204.5 Å². Regarding `NC(=O)CCCCC1CCSS1` (stereo not given) [Lipoamide], the “collision cross section (N2)” value ([M+Na]+) came to 150.5 Å². As for `O=P(O)(O)OC[C@H]1OC(O)[C@@H](O)[C@@H](O)[C@@H]1O` (stereo not given in full) [Mannose-6-phosphate], the “collision cross section (N2)” value ([M+Na]+) was found to be 155.8 Å².

On to `C[N+](C)(C)CCCC[C@H](N)C(=O)[O-]` [N6,N6,N6-Trimethyl-L-lysine], for which the “collision cross section (N2)” value ([M+H]+) was 142 Å².

As for `CNCCCC[C@H](N)C(=O)O` [N6-Methyl-L-lysine], the “collision cross section (N2)” value came out at 132.5 Å² ([M+H]+) and 134.21 Å² ([M-H]-). Take `CC(=O)N[C@@H](Cc1ccc(O)cc1)C(=O)O` [N-Acetyl-L-tyrosine]: the “collision cross section (N2)” value ([M+Na]+) is recorded as 154.5 Å² and the “collision cross section (N2)” value ([M-H]-) came out at 149.44 Å². As for `CC(=O)NCCCCCN` [N-Acetylcadaverine], the “collision cross section (N2)” value is, setting by setting: ([M+H]+) 132.9 Å²; ([M-H]-) 131.77 Å². In the case of `CC(=O)N[C@H]1C(OP(=O)(O)O)O[C@H](CO)[C@@H](O)[C@@H]1O` (stereo not given in full) [N-Acetylglucosamine 1-phosphate], the “collision cross section (N2)” value ([M+Na]+) was found to be 166.6 Å² and the “collision cross section (N2)” value ([M-H]-) was found to be 156.42 Å². Regarding `CC(=O)N[C@@H]1C(O)O[C@H](CO)[C@@H](O)[C@@H]1O` (stereo not given in full) [N-Acetylmannosamine], the “collision cross section (N2)” value ([M+Na]+) turned out to be 149.9 Å².

Take `CC(=O)NCCc1c[nH]c2ccc(O)cc12` [N-Acetylserotonin]: the “collision cross section (N2)” value is 149.8 Å² ([M+H]+) and 148.65 Å² ([M-H]-). `CCCCCCCCCCCCC/C=C/[C@@H](O)[C@H](CO)NC(=O)CCCCCCCCCCCCCCCCC` [N-Stearoylsphingosine]: the “collision cross section (N2)” value ([M+Na]+) is 256.4 Å² and the “collision cross section (N2)” value ([M-H]-) is 248.67 Å². For the compound `CN(C)C(N)=NCCC[C@H](N)C(=O)O` [NG,NG-dimethyl-L-arginine], under “[M+H]+”, the “collision cross section (N2)” value is on record as 143.5 Å².
